From patent US20090215171A1, “PELCAM-1-related molecules compositions kit of parts and associated methods of use” (The Johns Hopkins University, priority 2004, published 2009)

Test system: HUVECs
Assay: Measurement of intracellular free [Ca2+]i in HUVEC suspension (Fura-2/AM, thrombin stimulation)
Assay type: cell-based, human
Conditions: rest HUVEC; 16 h treatment; Ab 0.4 and 1.6 μg/mL, peptides 15 and 30 μg/mL; thrombin 1 U/ml
Procedure: HUVECs were cultured in EGM™ supplied with 10% of fetal bovine serum (FBS, dialyzed) to early confluence. HUVECs (passage number 3-4) were pre-incubated with and without TNF-α (5 ng/mL, 4 hour), next the cells were subjected to various doses of the JHS-7 Ab, accompanied by the pAb-C (c-terminal anti-PECAM-1 antibody) and a rabbit IgG (both served as controls). In addition, HUVECs were also incubated with a various doses of the JHS-7 peptide and a scrambled peptide served as its control. The treatments were carried out in EGM™ supplied with 2% of FBS for 16 hours. […] All above-mentioned peptides and antibodies were tested endotoxin free with an endotoxin detection kit (Sigma E-TOXATE®). Cell viability was determined with trypan blue exclusion assay after the incubation and no cytotoxic effect was observed under the Applicants' experimental conditions. HUVEC monolayers, following the incubation, were subjected to the following assays simultaneously: 1) monocyte TEM assay; 2) [Ca^2+]i measurement. […] Experimental results were calculated as average levels and plotted as % controls.
[Ca^2+]i measurement was conducted as described previously with slight modification. […] Fluorescence was recorded using a spectrofluorometer (Perkin Elmer LS-50B), with excitation and emission wavelengths of 340 and 505 nm, respectively. […]

Substance: scrambled peptide: control peptide of identical amino acid composition but different sequence TEDVLVPQNKSDNKATNNAFPNVSYVDEEDC (SEQ ID NO: 4) (Nonsense peptide with no known matches.)
- thrombin stimulatable [Ca2+]i: no effect
